{
  "source": "patent US12054509B2",
  "about": "“Antimicrobial compounds, compositions, and uses thereof” (Lakewood Amedex, Inc., priority 2017, dated 2024)",
  "key": {"[1]": {"assay": "Solubility", "assay_type": "physicochemical", "settings": "unit inferred"}, "[2]": {"test_system": "Helicobacter pylori SS1 (CagA+, VacA+)", "assay": "Helicobacter pylori SS1 infection in C57BL6 mice, bacterial stomach titers", "assay_type": "in vivo", "source_text": "The mouse strain used in this study is C57BL6 ranging from 5-6 weeks in age and 18-22 grams in weight. Mice are housed five to a cage with free access to food and water in accordance with NIB guidelines.\nA bacterial strain of Helicobacter pylori SS1 (CagA+, VacA+) is adapted for the mouse model from a human clinical isolate and validated in this infection model.\nAt 6 days prior to infection, a frozen stock is streaked onto one to two Columbia 5% sheep blood agar plates, and the plates are microaerophilically incubated for 72 hours at 37° C. After 72 hours, the plate growth is subcultured onto five Columbia 5% sheep blood agar plates and is incubated as before. After another 72 hours of incubation, the plates are removed, and the plate growth is suspended in sterile 0.9% saline to an OD of 1.5-2.0 at 530 nm. This OD is approximately equal to 1.0e+09 CFU/mL, which is used to orally infect the mice on all 3 infection days. To infect mice, the mice are orally dosed 0.25 mL of the 1.0e+09 CFU/mL via a 20-22 G gavage needle. Mice need to be fasted only before the first infection.\nAt 1 week post-infection, mice are treated with Nu-8. Multiple dose antibiotic therapies are administered orally at 0.2 mL/dose. Antibiotics are administered 2 times per day and continued for 7 days. The control group is administered the vehicle alone.\nFood is removed from cages 18 hours prior to euthanizing animals and each cage is clearly labeled that the animals are being experimentally fasted. Mice are euthanized (CO2 & cervical dislocation). […] The excised stomach is placed into a sterile petri dish and the luminal contents are rinsed away with sterile 1×PBS. Each rinsed stomach is placed into a 14-mL Falcon tube containing 2 mL of 1×PBS and stored on ice. Each stomach is homogenized, 10-fold serial diluted in 1×PBS, spot plated onto Columbia agar with 3.5% laked horse blood±the DENT selective antibiotic supplement, and microaerophilically incubated for 5 days at 37° C. Then, colonies are counted.\nNu-8 is administered at various doses (mg/kg), orally, twice-a-day for 7 days. The formulations, concentration and dose volumes for treatment is established prior to dosing. The positive control group consists of a triple therapy regimen (omeprazole, amoxicillin, and clarithromycin). Negative control used dosing solution without drugs."}, "[3]": {"test_system": "Streptococcus pneumoniae (PRSP)", "assay": "MIC at pH 3.5 (CLSI, Mueller-Hinton broth)", "assay_type": "cell-based"}, "[4]": {"test_system": "Escherichia coli (strain CFT073, TPPS 1041)", "assay": "Urinary tract infection model in BALB/c mice, initial efficacy (Example 10)", "assay_type": "in vivo", "settings": "1025 mg/kg pH 3.5 transurethral at 24 hr", "source_text": "Female BALB/c mice (20-22 g) ordered from Envigo are acclimated to housing conditions and handled in accordance with Animal Use Protocol (AUP) number TP-08. Animals are fed irradiated Teklad Global 29 18 Rodent Diet and water ad libitum. Mice are housed 6/cage in static cages with irradiated ⅛″ Teklad corn cobbedding 7902 inside bioBubble® clean rooms that provide H.E.P.A filtered air into the bubble environment at 100 complete air changes per hour. The environment is controlled to a temperature range of 74°±4° F. and a humidity range of 30-70%. All procedures carried out in this experiment are conducted in compliance with the laws, regulations, and guidelines of the National Institutes of Health and with the approval of the TransPharm Preclinical Solutions Animal Care and Use Committee.\nA clinical isolate of Escherichia coli (strain CFT073, TPPS 1041) are procured from the University of Michigan.\nThe organism is grown overnight at 37° C. in ambient atmosphere on trypticase soy agar plates supplemented with 5% sheep blood cells. The culture is aseptically swabbed and transferred to tubes of trypticase soy broth. The optical density is determined at 600 nm. The culture is diluted to provide an inoculum of approximately 7.5 log10 CFU per mouse in a volume of 30 μL. Instillation of the bacterial challenge constituted time 0 hour for the study. Inoculum counts are estimated before inoculation by optical density and confirmed after inoculation by dilution and back counts.\nOne hour prior to bacterial challenge, water is removed from animal cages. […]\nThe primary endpoint used to assess progress of the infection is mean bacterial burden per gram of urinary bladder tissue. […] Colony forming units (CFU) are enumerated and the total bacterial burden per gram of urinary bladder tissue homogenate is calculated.\nThe geometric mean CFU, along with standard error of the mean (SEM), are calculated using Microsoft Excel and bar charts are prepared for the data using GraphPad Prism v. […]"}},
  "data": [
    {"smiles": "CCCCOP(=O)(O)OC[C@H]1O[C@@H](n2ccc(N)nc2=O)C[C@@H]1OP(=O)(O)OCCCC", "note": "[Nu-8, sodium ((2R,3S,5R)-5-(4-amino-2-oxopyrimidin-1(2H)-yl)-3-((butoxyoxidophosphor-yl)oxy)tetrahydrofuran-2-yl)methyl butyl phosphate]", "values": [
      {"measurement": "solubility", "setting": "[1]", "result": 137, "unit": "mg/mL"},
      {"measurement": "mean bacterial stomach titer", "setting": "[2]; 0.2 mg (1 mg/mL, 0.2 mL) PO bid 7 days, +7 Days", "result": 5.62, "unit": "log10 CFU"},
      {"measurement": "mean bacterial stomach titer", "setting": "[2]; 0.2 mg (1 mg/mL, 0.2 mL) PO bid 7 days, +14 Days", "result": 6.2, "unit": "log10 CFU"},
      {"measurement": "mean bacterial stomach titer", "setting": "[2]; 1.0 mg (5 mg/mL, 0.2 mL) PO bid 7 days, +7 Days", "result": 5.21, "unit": "log10 CFU"},
      {"measurement": "mean bacterial stomach titer", "setting": "[2]; 1.0 mg (5 mg/mL, 0.2 mL) PO bid 7 days, +14 Days", "result": 5.67, "unit": "log10 CFU"},
      {"measurement": "mean bacterial stomach titer", "setting": "[2]; 2 mg (10 mg/mL, 0.2 mL) PO bid 7 days, +7 Days", "result": 4.74, "unit": "log10 CFU"},
      {"measurement": "mean bacterial stomach titer", "setting": "[2]; 2 mg (10 mg/mL, 0.2 mL) PO bid 7 days, +14 Days", "result": 5.81, "unit": "log10 CFU"},
      {"measurement": "MIC", "setting": "[3]", "result": "9.38 to 18.8", "unit": "mg/mL"},
      {"measurement": "mean bladder CFU burden", "setting": "[4]; 20 minutes post-treatment", "result": 2.9, "unit": "log10 CFU"},
      {"measurement": "mean bladder CFU burden", "setting": "[4]; 60 minutes post-treatment", "result": 3.7, "unit": "log10 CFU"}
    ]}
  ]
}
